# Assay results reported in publication PMC12042115 (mLife, 2025).
# Where two headings read alike, the source gives them in different places.
# Test system: wild‐type BCG cells
# Assay type: cell-based, M. bovis BCG
# Conditions: for Mean_Ratio (GDI5755_3d vs DMSO_3d): down-regulated, 3 d; for Mean Ratio: GDI5755_2d vs DMSO_2d; for Mean Ratio / Mean Ratio (GDI5755_2d vs DMSO_2d): up-regulated; for Mean Ratio (GDI5755_2d vs DMSO_2d): 2d
smiles,measurement,setting,value
O=C(Oc1ccc(Cl)cc1)c1ccc(N2CCOCC2)c([N+](=O)[O-])c1 [GDI‐5755],Mean_Ratio (GDI5755_3d vs DMSO_3d),"protein A0A0H3M2P5, BCG_0207 (Rv0170), MCE-family protein mce1B",0.7
same,Mean Ratio,protein A0A0H3M2Q0 Probable conserved mce associated membrane protein,1.29
same,Mean Ratio,protein A0A0H3M2Q5 Probable conserved transmembrane protein,1.31
same,Mean Ratio (GDI5755_2d vs DMSO_2d),protein A0A0H3M2T8 Possible conserved membrane protein mmpS5,1.38
same,Mean Ratio,protein A0A0H3M3A7 3-hydroxyacyl-CoA dehydrogenase,1.27
same,Mean_Ratio (GDI5755_3d vs DMSO_3d),"protein A0A0H3M3B6, BCG_1227 (Rv1165), Large ribosomal subunit assembly factor BipA",0.749
same,Mean_Ratio (GDI5755_3d vs DMSO_3d),"protein A0A0H3M3D2, BCG_0932 (Rv0880), Possible transcriptional regulatory protein (Possibly marR-family)",0.738
same,Mean_Ratio (GDI5755_3d vs DMSO_3d),"protein A0A0H3M3H3, BCG_1314 (Rv1254), Probable acyltransferase",0.748
same,Mean Ratio,protein A0A0H3M3I2 Uncharacterized protein,1.28
same,Mean Ratio,protein A0A0H3M3J3 Probable periplasmic oligopeptide-binding lipoprotein oppA,1.27
same,Mean Ratio (GDI5755_2d vs DMSO_2d),protein A0A0H3M3L0 Conserved hypothetical transmembrane protein,1.38
same,Mean Ratio,protein A0A0H3M3S8 Lipoarabinomannan carrier protein LprG,1.31
same,Mean Ratio,protein A0A0H3M3T4 Possible conserved membrane protein,1.31
same,Mean Ratio,protein A0A0H3M3X9 Probable cation transporter P-type atpase D ctpD,1.31
same,Mean_Ratio (GDI5755_3d vs DMSO_3d),"protein A0A0H3M4A0, BCG_1633 (Rv1595), L-aspartate oxidase",0.7
same,Mean Ratio (GDI5755_2d vs DMSO_2d),protein A0A0H3M4G0 Lipoprotein lprB,1.35
same,Mean_Ratio (GDI5755_3d vs DMSO_3d),"protein A0A0H3M4I9, BCG_1379c (Rv1318c), Possible adenylate cyclase",0.7
same,Mean_Ratio (GDI5755_3d vs DMSO_3d),"protein A0A0H3M4L2, BCG_1760c (Rv1721c), Antitoxin VapB12",0.7
same,Mean Ratio,protein A0A0H3M4W6 DUF1490 family protein,1.26
same,Mean_Ratio (GDI5755_3d vs DMSO_3d),"protein A0A0H3M5A9, BCG_1670c (Rv1632c), DUF402 domain-containing protein",0.74
same,Mean Ratio (GDI5755_2d vs DMSO_2d),protein A0A0H3M5C0 RNA polymerase sigma factor,1.33
same,Mean_Ratio (GDI5755_3d vs DMSO_3d),"protein A0A0H3M5G5, BCG_1251, alternative RNA polymerase sigma factor sigI",0.7
same,Mean Ratio,protein A0A0H3M5I2 Uncharacterized protein,1.28
same,Mean Ratio,protein A0A0H3M5J1 Probable serine protease htrA,1.26
same,Mean Ratio (GDI5755_2d vs DMSO_2d),protein A0A0H3M5K5 DUF4129 domain-containing protein,1.38
same,Mean_Ratio (GDI5755_3d vs DMSO_3d),"protein A0A0H3M5K7, BCG_1305c (Rv1245c), Probable short-chain type dehydrogenase/reductase",0.7
same,Mean Ratio (GDI5755_2d vs DMSO_2d),protein A0A0H3M5K8 Methylenetetrahydrofolate reductase,1.33
same,Mean_Ratio (GDI5755_3d vs DMSO_3d),"protein A0A0H3M5L3, BCG_1311c (Rv1251c), Uncharacterized protein",0.76
same,Mean Ratio,protein A0A0H3M5L8 1-acylglycerol-3-phosphate O-acyltransferase,1.26
same,Mean Ratio (GDI5755_2d vs DMSO_2d),protein A0A0H3M5V5 Possible flavoprotein,1.33
same,Mean Ratio (GDI5755_2d vs DMSO_2d),protein A0A0H3M5V7 Possible transmembrane protein,1.32
same,Mean Ratio,protein A0A0H3M5V9 DUF3145 domain-containing protein,1.32
same,Mean Ratio (GDI5755_2d vs DMSO_2d),protein A0A0H3M6F8 Probable 'component linked with the assembly of cytochrome' transport transmembrane ATP-binding protein ABC transporter cydC,1.33
same,Mean_Ratio (GDI5755_3d vs DMSO_3d),"protein A0A0H3M6P3, BCG_1740c (Rv1702c), HNH nuclease domain-containing protein",0.759
same,Mean Ratio,protein A0A0H3M6T8 Uncharacterized protein,1.25
same,Mean Ratio (GDI5755_2d vs DMSO_2d),protein A0A0H3M7A1 Probable conserved membrane protein,1.33
same,Mean Ratio,protein A0A0H3M7A2 (2E)-enoyl-[ACP] glycyltransferase,1.27
same,Mean Ratio,protein A0A0H3M7D2 Quinone oxidoreductase,1.25
same,Mean_Ratio (GDI5755_3d vs DMSO_3d),"protein A0A0H3M7E6, BCG_0206 (Rv0169), MCE-family protein mce1A",0.7
same,Mean_Ratio (GDI5755_3d vs DMSO_3d),"protein A0A0H3M7F0, BCG_0211 (Rv0174), MCE-family protein mce1F",0.7
same,Mean Ratio (GDI5755_2d vs DMSO_2d),protein A0A0H3M7F7 Hemerythrin-like domain-containing protein,1.39
same,Mean Ratio,protein A0A0H3M7J3 UspA domain-containing protein,1.27
same,Mean Ratio,protein A0A0H3M7L3 Succinate dehydrogenase [membrane anchor subunit],1.25
same,Mean Ratio,protein A0A0H3M7L4 Possible transmembrane protein dedA,1.29
same,Mean Ratio,protein A0A0H3M7L9 Probable arsenic-transport integral membrane protein arsC,1.30
same,Mean Ratio,protein A0A0H3M7M0 Posible transcriptional regulatory protein,1.27
same,Mean_Ratio (GDI5755_3d vs DMSO_3d),"protein A0A0H3M7M6, BCG_2876 (Rv2856), Nickel/cobalt efflux system",0.7
same,Mean Ratio,protein A0A0H3M7N4 Possible secreted protease,1.32
same,Mean_Ratio (GDI5755_3d vs DMSO_3d),"protein A0A0H3M7R0, BCG_0355, Possible beta-1,3-glucanase",0.7
same,Mean Ratio,protein A0A0H3M7R4 Probable membrane protein,1.30
same,Mean_Ratio (GDI5755_3d vs DMSO_3d),"protein A0A0H3M7T2, BCG_2131, Uncharacterized protein",0.742
same,Mean_Ratio (GDI5755_3d vs DMSO_3d),"protein A0A0H3M7W0, BCG_2977 (Rv2956), Methyltransferase FkbM domain-containing protein",0.7
same,Mean Ratio,protein A0A0H3M7X0 Probable conserved transmembrane protein,1.28
same,Mean Ratio,protein A0A0H3M7X3 Probable conserved transmembrane protein,1.32
same,Mean_Ratio (GDI5755_3d vs DMSO_3d),"protein A0A0H3M7Y1, BCG_0442 (Rv0404), Probable fatty-acid-CoA ligase fadD30",0.7
same,Mean_Ratio (GDI5755_3d vs DMSO_3d),"protein A0A0H3M7Y6, BCG_2210 (Rv2194), Cytochrome bc1 complex cytochrome c subunit, qcrC",0.747
same,Mean Ratio,protein A0A0H3M8J5 Protein translocase subunit SecE,1.31
same,Mean Ratio (GDI5755_2d vs DMSO_2d),protein A0A0H3M8K7 DUF4333 domain-containing protein,1.33
same,Mean Ratio,protein A0A0H3M8L8 Probable FeIII-dicitrate-binding periplasmic lipoprotein fecB,1.27
same,Mean Ratio,protein A0A0H3M8M0 Conserved hypothetical threonine rich protein,1.26
same,Mean Ratio,protein A0A0H3M8Q9 Probable short-chain type dehydrogenase/reductase,1.27
same,Mean_Ratio (GDI5755_3d vs DMSO_3d),"protein A0A0H3M8T3, BCG_3410 (Rv3340), Probable O-acetylhomoserine sulfhydrylase metC",0.7
same,Mean Ratio,protein A0A0H3M8V5 Possible transcriptional regulatory protein (Probably tetR-family),1.29
same,Mean_Ratio (GDI5755_3d vs DMSO_3d),"protein A0A0H3M8X7, BCG_3431 (Rv3359), Possible oxidoreductase",0.737
same,Mean Ratio (GDI5755_2d vs DMSO_2d),protein A0A0H3M8X9 Probable oxidase,1.33
same,Mean_Ratio (GDI5755_3d vs DMSO_3d),"protein A0A0H3M8Y4, BCG_3436c (Rv3364c), Roadblock/LAMTOR2 domain-containing protein/Serine protease inhibitor",0.75
